The values below come from patent US9242984B2, “Pyrazolyl derivatives as Syk inhibitors” (Merck Sharp & Dohme Corp., priority 2012, dated 2016).

The structures appear in SMILES notation.

In one experiment the target is T1, recombinant human Syk (GST-hSyk fusion protein) (Homo sapiens, UniProt P43405).
T1 construct: purchased Carna Biosciences 08-176
The experiment can be described thus: Homogeneous Time-Resolved Fluorescence (HTRF) assay for the recombinant human Syk enzyme. Type of experiment: biochemical. Particulars: 10-dose titration, 25 μM ATP; read-out: rhSYK IC50. The procedure, abridged: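 IC50 came from a four-parameter fit over ten doses, 10 μM to 0.508 nM, with HTRF read-out (Eu-anti-pTyr antibody, SA-APC, EDTA stop, 30 min). The enzyme, 5 pM GST-hSyk, met compound for 10 min, then phosphorylated 250 nM biotin-peptide with 25 μM ATP and 5 mM Mg for 45 min at room temperature, pH 7.5.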
For orientation: In TR-FRET formats the signal depends on donor and acceptor labels being close together.
Consider `Cc1cc(Nc2nccc(C(F)(F)F)n2)cc(-c2cnn(CC3(O)CCNCC3)c2)c1` [Example 12.1, 4-((4-(3-methyl-5-((4-(trifluoromethyl)pyrimidin-2-yl)amino)phenyl)-1H-pyrazol-1-yl)methyl)piperidin-4-ol], for which the IC50 amounted to 0.11 µM.

Staying with this experiment, now noted: IC50 class; 10-dose titration, 25 μM ATP; read-out: rhSYK Activity.
For `COc1ccnc(Nc2cc(C)cc(-c3cnn(C[C@H](O)C(=O)O)c3)c2)n1` [Example 11.2, (2S)-2-hydroxy-3-(4-{3-[(4-methoxy-pyrimidin-2-yl)amino]-5-methylphenyl}-1H-pyrazol-1-yl)-propanoic acid], the IC50 was at most 0.1 µM.

For `Cc1cc(Nc2nccc(C)n2)cc(-c2cnn(C[C@H](O)C(=O)O)c2)c1` [Example 11.3, (2S)-2-hydroxy-3-(4-{3-methyl-5-[(4-methylpyrimidin-2-yl)amino]phenyl}-1H-pyrazol-1-yl)-propanoic acid], the IC50 is at most 0.1 µM.

Regarding `COc1ccnc(Nc2cccc(-c3cnn(C[C@H](O)C(=O)O)c3)c2)n1` [Example 11.4, (2S)-2-hydroxy-3-(4-{3-[(4-methoxy-pyrimidin-2-yl)-amino]phenyl}-1H-pyrazol-1-yl)-propanoic acid], the IC50 is at most 0.1 µM.

In the case of `Cc1cc(Nc2nccc(C3CC3)n2)cc(-c2cnn(C[C@H](O)C(=O)O)c2)c1` [Example 11.5, (2S)-3-(4-{3-[(4-cyclopropylpyrimidin-2-yl)amino]-5-methyl-phenyl}-1H-pyrazol-1-yl)-2-hydroxy-propanoic acid], the IC50 is at most 0.1 µM.

Regarding `COc1nc(Nc2cc(C)cc(-c3cnn(C[C@H](O)C(=O)O)c3)c2)ncc1Cl` [Example 11.6, (2S)-3-(4-{3-[(5-chloro-4-methoxy-pyrimidin-2-yl)-amino]-5-methyl-phenyl}-1H-pyrazol-1-yl)-2-hydroxy-propanoic acid], the IC50 is at most 0.1 µM.

In the case of `Cc1cc(Nc2ncc(Cl)c(C)n2)cc(-c2cnn(C[C@@H](O)C(=O)O)c2)c1` [Example 11.7, (2R)-3-(4-{3-[(5-chloro-4-methyl-pyrimidin-2-yl)-amino]-5-methyl-phenyl}-1H-pyrazol-1-yl)-2-hydroxy-propanoic acid], the IC50 is at most 0.1 µM.

Consider `COc1ccnc(Nc2cc(C)cc(-c3cnn(C[C@@H](O)C(=O)O)c3)c2)n1` [Example 11.8, (2R)-2-hydroxy-3-(4-{3-[(4-methoxy-pyrimidin-2-yl)-amino]-5-methyl-phenyl}-1H-pyrazol-1-yl)propanoic acid], for which the IC50 is at most 0.1 µM.

Take `COc1nc(Nc2cc(C)cc(-c3cnn(C[C@@H](O)C(=O)O)c3)c2)ncc1Cl` [Example 11.9, (2R)-3-(4-{3-[(5-chloro-4-methoxy-pyrimidin-2-yl)-amino]-5-methyl-phenyl}-1H-pyrazol-1-yl)-2-hydroxy-propanoic acid]: the IC50 was at most 0.1 µM.

As to `Cc1cc(Nc2nccc(C)n2)cc(-c2cnn(C[C@@H](O)C(=O)O)c2)c1` [Example 11.10, (2R)-2-hydroxy-3-(4-{3-methyl-5-[(4-methylpyrimidin-2-yl)amino]phenyl}-1H-pyrazol-1-yl)propanoic acid], the IC50 is at most 0.1 µM.

On to `COc1ccnc(Nc2cccc(-c3cnn(C[C@@H](O)C(=O)O)c3)c2)n1` [Example 11.11, (2R)-2-hydroxy-3-(4-{3-[(4-methoxy-pyrimidin-2-yl)amino]phenyl}-1H-pyrazol-1-yl)propanoic acid], for which the IC50 was at most 0.1 µM.

Take `Cc1cc(Nc2ncc(F)c(C)n2)cc(-c2cnn(C[C@@H](O)C(=O)O)c2)c1` [Example 11.13, (2R)-3-(4-{3-[(5-fluoro-4-methylpyrimidin-2-yl)amino]-5-methylphenyl}-1H-pyrazol-1-yl)-2-hydroxypropanoic acid]: the IC50 was at most 0.1 µM.

Consider `Cc1cc(Nc2nccc(OC(C)C)n2)cc(-c2cnn(C[C@@H](O)C(=O)O)c2)c1` [Example 11.14, (2R)-2-hydroxy-3-[4-(3-methyl-5-{[4-(1-methylethoxy)-pyrimidin-2-yl]amino}-phenyl)-1H-pyrazol-1-yl]propanoic acid], for which the IC50 is at most 0.1 µM.

In the case of `COc1nc(Nc2cc(C)cc(-c3cnn(C[C@@H](O)C(=O)O)c3)c2)ncc1Cl` [Example 11.15, (2R)-3-(4-{3-[(5-chloro-4-methoxy-pyrimidin-2-yl)amino]-5-methyl-phenyl}-1H-pyrazol-1-yl)-2-hydroxy-propanoic acid], the IC50 was at most 0.1 µM.

On to `Cc1cc(Nc2nccc(C(C)C)n2)cc(-c2cnn(C[C@@H](O)C(=O)O)c2)c1` [Example 11.16, (2R)-2-hydroxy-3-[4-(3-methyl-5-{[4-(1-methylethyl)-pyrimidin-2-yl]amino}phenyl)-1H-pyrazol-1-yl]propanoic acid], for which the IC50 was at most 0.1 µM.

Regarding `Cc1cc(Nc2nccc(C(F)(F)F)n2)cc(-c2cnn(C[C@H](O)C(=O)O)c2)n1` [Example 11.18, (2S)-2-hydroxy-3-[4-(6-methyl-4-{[4-(trifluoro-methyl)pyrimidin-2-yl]amino}pyridin-2-yl)-1H-pyrazol-1-yl]propanoic acid], the IC50 was at most 0.1 µM.

Take `Cc1ccnc(Nc2cc(C)nc(-c3cnn(C[C@@H](O)C(=O)O)c3)n2)c1` [Example 11.19, (2R)-2-hydroxy-3-(4-{4-methyl-6-[(4-methyl-pyridin-2-yl)amino]-pyrimidin-2-yl}-1H-pyrazol-1-yl)propanoic acid]: the IC50 is 0.1 to 1 µM.

`Cc1cc(Nc2nccc(C(F)(F)F)n2)cc(-c2cnn(C[C@@H](O)C(=O)O)c2)n1` [Example 11.20, (2R)-2-hydroxy-3-[4-(6-methyl-4-{[4-(trifluoro-methyl)pyrimidin-2-yl]amino}pyridin-2-yl)-1H-pyrazol-1-yl]propanoic acid]: the IC50 is at most 0.1 µM.

As for `Cc1cc(Nc2nccc(C(F)(F)F)n2)cc(-c2cnn(CC3(O)CCNCC3)c2)c1` [Example 12.1, 4-((4-(3-methyl-5-((4-(trifluoromethyl)pyrimidin-2-yl)amino)phenyl)-1H-pyrazol-1-yl)methyl)piperidin-4-ol], the IC50 lay within 0.1 to 1 µM.

Turning to `Cc1cc(Nc2nccc(C(F)(F)F)n2)cc(-c2cnn(CC3(O)CCC3)c2)c1` [Example 12.2, 1-{[4-(3-methyl-5-{[4-(trifluoro-methyl)pyrimidin-2-yl]amino}-phenyl)-1H-pyrazol-1-yl]-methyl}-cyclobutanol], the IC50 was at most 0.1 µM.

For the compound `COC1CC(O)(Cn2cc(-c3cc(C)cc(Nc4nccc(C)n4)c3)cn2)C1` (stereo not shown) [Example 12.3, 3-methoxy-1-[(4-{3-methyl-5-[(4-methylpyrimidin-2-yl)amino]phenyl}-1H-pyrazol-1-yl)methyl]-cyclobutanol], the IC50 was at most 0.1 µM.

For `Cc1cc(Nc2nccc(C(F)(F)F)n2)cc(-c2cnn(CC3(O)CCN(CC(=O)OC(C)(C)C)CC3)c2)c1` [Example 12.4, tert-butyl (4-hydroxy-4-{[4-(3-methyl-5-{[4-(trifluoro-methyl)pyrimidin-2-yl]amino}phenyl)-1H-pyrazol-1-yl]methyl}-piperidin-1-yl)acetate], the IC50 lay in the range of 0.1 to 1 µM.

Consider `Cc1cc(Nc2nccc(C(F)(F)F)n2)cc(-c2cnn(CC3(O)CCOCC3)c2)c1` [Example 12.5, 4-{[4-(3-methyl-5-{[4-(trifluoromethyl)pyrimidin-2-yl]amino}phenyl)-1H-pyrazol-1-yl]methyl}-tetrahydro-2H-pyran-4-ol], for which the IC50 was at most 0.1 µM.

On to `Cc1cc(Nc2nccc(C(F)(F)F)n2)cc(-c2cnn(CC3(O)CCC(C(=O)O)C(C)(C)C3)c2)c1` (stereo not shown) [Example 12.6, 4-hydroxy-2,2-dimethyl-4-{[4-(3-methyl-5-{[4-(trifluoromethyl)pyrimidin-2-yl]amino}phenyl)-1H-pyrazol-1-yl]methyl}-cyclohexanecarboxylic acid], for which the IC50 is at most 0.1 µM.

Regarding `Cc1cc(Nc2nccc(C(F)(F)F)n2)cc(-c2cnn(CC3(O)CCCOC3)c2)c1` (stereo not shown) [Example 12.7, 3-{[4-(3-methyl-5-{[4-(trifluoromethyl)pyrimidin-2-yl]amino}phenyl)-1H-pyrazol-1-yl]methyl}-tetrahydro-2H-pyran-3-ol], the IC50 is at most 0.1 µM.

Regarding `Cc1cc(Nc2nccc(C(F)(F)F)n2)cc(-c2cnn(C[C@@]3(O)C[C@@H](C)O[C@@H](C)C3)c2)c1` [Example 12.8, meso (2R,4S,6S)-2,6-dimethyl-4-{[4-(3-methyl-5-{[4-(trifluoro-methyl)pyrimidin-2-yl]amino}phenyl)-1H-pyrazol-1-yl]methyl}-tetrahydro-2H-pyran-4-ol], the IC50 is at most 0.1 µM.

For `Cc1cc(Nc2nccc(C(F)(F)F)n2)cc(-c2cnn(CC3(O)CCOC(C)(C)C3)c2)c1` (stereo not shown) [Example 12.9, 2,2-dimethyl-4-{[4-(3-methyl-5-{[4-(trifluoro-methyl)pyrimidin-2-yl]amino}phenyl)-1H-pyrazol-1-yl]methyl}-tetrahydro-2H-pyran-4-ol], the IC50 is at most 0.1 µM.

For the compound `Cc1cc(Nc2nccc(C(F)(F)F)n2)cc(-c2cnn(CC3(O)CCOC(C)(C)C3)c2)c1` (stereo not shown) [Example 12.10, 2,2-dimethyl-4-{[4-(3-methyl-5-{[4-(trifluoro-methyl)pyrimidin-2-yl]amino}phenyl)-1H-pyrazol-1-yl]methyl}-tetrahydro-2H-pyran-4-ol], the IC50 is at most 0.1 µM.

Consider `Cc1cc(Nc2nccc(C(F)(F)F)n2)cc(-c2cnn(CC3(O)CCCOC3)c2)c1` (stereo not shown) [Example 12.11, 3-{[4-(3-methyl-5-{[4-(trifluoromethyl)pyrimidin-2-yl]amino}phenyl)-1H-pyrazol-1-yl]methyl}-tetrahydro-2H-pyran-3-ol], for which the IC50 is at most 0.1 µM.

As for `Cc1cc(Nc2nccc(C(F)(F)F)n2)cc(-c2cnn(CC3COCCC3O)c2)c1` (stereo not shown) [Example 12.12, 3-{[4-(3-methyl-5-{[4-(trifluoromethyl)pyrimi-din-2-yl]amino}phenyl)-1H-pyrazol-1-yl]methyl}-tetrahydro-2H-pyran-4-ol], the IC50 was at most 0.1 µM.

Take `Cc1cc(Nc2nccc(C)n2)cc(-c2cnn(CC3(O)CCOCC3)c2)c1` [Example 12.13, 4-[(4-{3-methyl-5-[(4-methylpyrimidin-2-yl)amino]phenyl}-1H-pyrazol-1-yl)methyl]-tetrahydro-2H-pyran-4-ol]: the IC50 lay within 0.1 to 1 µM.
